The test has as its target T1, GPR103 Y214^5.38A (Homo sapiens, UniProt Q96P65, Y214A).
T1 construct: we used human full-length QRFPR-encoding plasmids; expressed in transfected cells; host or cells: HEK293 cells, pCAGGS vector
T1 sequence (Q96P65 1-431 Y214A): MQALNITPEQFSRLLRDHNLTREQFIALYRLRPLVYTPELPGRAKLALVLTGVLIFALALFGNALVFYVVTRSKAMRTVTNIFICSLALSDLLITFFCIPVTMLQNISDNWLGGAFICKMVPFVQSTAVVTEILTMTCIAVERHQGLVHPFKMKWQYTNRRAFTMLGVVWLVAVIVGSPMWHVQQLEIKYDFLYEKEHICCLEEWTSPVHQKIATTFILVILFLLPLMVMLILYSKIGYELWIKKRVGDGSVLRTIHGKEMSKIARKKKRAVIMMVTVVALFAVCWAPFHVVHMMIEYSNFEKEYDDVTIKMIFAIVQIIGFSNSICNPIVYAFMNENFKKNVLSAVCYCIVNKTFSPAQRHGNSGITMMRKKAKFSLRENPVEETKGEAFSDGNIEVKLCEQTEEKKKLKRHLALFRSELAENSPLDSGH
As to the kind of experiment: TGFα shedding assay; Exp. level WT (1:50). The format is cell-based. How it is done:
For the TGFα shedding assay and the flow cytometry analysis, we used human full-length QRFPR-encoding plasmids. Specifically, GPR103 was N-terminally modified with an HA signal sequence followed by a FLAG epitope and then a flexible linker ([…]; the FLAG epitope is underlined) and inserted into the pCAGGS vector. Plasmid encoding GPR103 mutants were generated using Quickchange Site-Directed Mutagensis kit (Agilent).
The TGFα shedding assay was performed as described previously with minor modifications. Plasmid transfection was performed in a 6-well plate with a mixture of 500 ng (per well in a 6-well plate) AP-TGFα-encoding plasmid and 200 ng GPR103-encoding plasmid. After 1-day culture, the transfected cells were harvested by trypsinization, pelleted by centrifugation at 190 × g for 5 min, and washed once with 5 mM HEPES (pH 7.4)-containing Hank’s Balanced Salt Solution (HBSS). After centrifugation, the cells were resuspended in 8 mL of the HEPES-containing HBSS. The cell suspension was seeded in a 96-well culture plate (cell plate) at a volume of 90 μL (per well hereafter) and incubated in a 37 °C incubator with 5% CO2 for 30 min. […] After spinning the cell plates at 190 × g for 2 min, 80 μL of conditioned media was transferred to an empty 96-well plate (conditioned media (CM) plate). Then, 80 μL of AP reaction solution (10 mM p-nitrophenylphosphate (p-NPP), 120 mM Tris-HCl (pH 9.5), 40 mM NaCl, and 10 mM MgCl2) was dispensed into the cell plates and the CM plates. Absorbance at 405 nm of the plates was measured using a microplate reader (SpectraMax 340 PC384, Molecular Devices) before and after 1-h incubation at room temperature. Ligand-induced AP-TGFα release was calculated by subtracting spontaneous AP-TGFα release signal from ligand-induced AP-TGFα release signal. The AP-TGFα release signals were fitted to a four-parameter sigmoidal concentration–response curve, using the Prism 10 software (GraphPad Prism). For each replicate experiment, the pEC50 parameter (negative logarithmic values of EC50 values) of the individual GPR103 mutants were normalized to that of the wild-type GPR103 performed in parallel, and resulting ∆pEC50 values were used to denote ligand response activity of the mutants. […]
Exp. le vel: WT (1:5 0)Exp. le vel: WT (1:5 0)Exp. le vel: WT (1:5 0)Exp. le vel: WT (1:2 0)Exp. le vel: WT (1:2 0)Exp. le vel: WT (1:1 0) […]
L1 4N - t e r mA F2 5N - t e r mA I 2 6N - t e r mA Y 2 9N - t e r mA C 9 82 .5 7A T10 22 .6 1A Exp . l eve l: WT (1 :5)Exp . l evel : >WT (1 :1)Exp. le vel: WT (1:2 0)Exp. le vel: WT (1:2 0)Exp. le vel: WT (1:5 0)Exp . l eve l: WT (1 :1) […]
Exp. le vel: WT (1:1 0)Exp. le vel: WT (1:2 0) C 1 1 83 .2 5AExp. le vel: WT (1:5 0)Exp. le vel: WT (1:5 0)Exp. le vel: WT (1:2 0)Exp . l eve l: WT (1 :5) […]
Exp. le vel: WT (1:5 0)Exp. le vel: WT (1:1 0)Exp. le vel: WT (1:5 0) E203ECL2AExp . l evel : >WT (1 :1)Exp. le vel: WT (1:5 0)Exp. le vel: WT (1:5 0) […]
Exp . l eve l: WT (1 :1) F28Exp. le vel: WT (1:5 0) C 2 8 56 .4 7AExp. le vel: WT (1:2 0) WExp. le vel: WT (1:2 0) F28Exp. le vel: WT (1:5 0)Exp . l evel : >WT (1 :1) […]
Exp. le vel: WT (1:5 0)Exp. le vel: WT (1:5 0) C 3 2 77 .4 8AExp . l eve l: WT (1 :5)Exp . l evel : >WT (1 :1)Exp . l evel : >WT (1 :1) […]
Suppl eme nt ary Figure 1 | Mutational analysis of GPR103. […]
mutants. Data are presented as mean values ± SEM, normally n=3-5; dots), each performed in triplicate. b-d Cell-surface expression (b) and QRFP26-in-duced activation of GPR103 (c, d) were analyzed by the flow cytometry and the TGFα shedding assay, respectively. From the concentration–response curves (a), Emax (c) and ΔpEC50 (d) values relative to the wild type were calculated. Colors in the mutant bars indicate an expression level matching to that of titrated wild type. Statistical analyses were performed using the ordinary one-way ANOVA followed by Dunnett tests with the expression-matched […]

Read-outs that look alike come from different tables or passages of the source. No end group written: not given here.

The term EC50 denotes the midpoint of the concentration-response curve.

For TSGPLGNLAEELNGYSRKKGGFSFRF-NH2 [QRFP26], the Emax was found to be 18.32 % WT (Exp. #1); 10.80 % WT (Exp. #2); 19.27 % WT (Exp. #3); 16.1% (mean, read-out: Emax); 16.6 ± 2.2% (n = 3, read-out: Emax). Under “n = 3”, the EC50 was 105 nM.

Values taken from publication PMC11187126, “Structure and dynamics of the pyroglutamylated RF-amide peptide QRFP receptor GPR103” (Nature Communications, 2024).
